Test results as given in ChEMBL document CHEMBL1126492, “Cytotoxicity of ent-udoteatrial diacetate and its analogues” (Bioorg Med Chem Lett, 1993).
≈ marks a conversion by molar mass, not a printed value.

What was measured:
[1] = tested on: A549; assay: In vitro cytotoxicity against human lung carcinoma A-549 cell line; type: functional, cell-based
[2] = tested on: KB; assay: In vitro cytotoxicity against human oral epidermoid carcinoma KB cell line; type: functional, cell-based

Structure (SMILES)	IC50 [1]	IC50 [2]
CC(=O)O[C@H]1O[C@@H]2O[C@@H](OC(C)=O)[C@@H]3CC[C@H]([C@@H]1C)[C@H]23	> 25 µg/mL	> 25 µg/mL
CC(=O)O[C@@H]1O[C@@H]2O[C@@H](OC(C)=O)[C@@H]3CC[C@H]([C@H]1CC/C=C(\C)CCC=C(C)C)[C@H]23	1.9 µg/mL (≈ 4.52 µM)	1.6 µg/mL (≈ 3.8 µM)
CC(=O)OC1O[C@@H]2O[C@@H](OC(C)=O)[C@@H]3CC[C@@H]([C@H]23)[C@H]1C (stereo not given in full)	> 25 µg/mL	> 25 µg/mL
CC(=O)O[C@H]1O[C@@H]2O[C@@H](OC(C)=O)[C@@H]3CC[C@H]([C@@H]1CC/C=C(\C)CCC=C(C)C)[C@H]23	3.9 µg/mL (≈ 9.27 µM)	3.4 µg/mL (≈ 8.08 µM)
CC(=O)O[C@H]1O[C@@H]2O[C@@H](OC(C)=O)[C@@H]3CC[C@H]([C@H]1CC/C=C(\C)CCC=C(C)C)[C@H]23	0.5 µg/mL (≈ 1.19 µM)	0.4 µg/mL (≈ 0.951 µM)
